Measured values reported in patent US8173675B2, “Substituted amino-thiourea compounds for combating animal pests” (BASF SE, priority 2007, dated 2012).
One block for each compound: values may come before it.

What was measured:
[1] = system: Cowpea Aphid (aphis craccivora); assay: Cowpea aphid (aphis craccivora) test, colonized potted cowpea plants sprayed; format: in vivo; conditions: population reduction recorded after 24, 72, and 120 hours
Experimental: (§1) In the following tests, the formulated solutions of the active compounds were diluted to an active ingredient concentration of 300 ppm, if not otherwise described, and the diluted solutions were applied in the below mentioned tests.
The active compounds were formulated in 50:50 acetone:water. Potted cowpea plants colonized with 100-150 aphids of various stages were sprayed after the pest population has been recorded. Population reduction was recorded after 24, 72, and 120 hours.

[2] = system: Cotton Aphid (Aphis gossypii); assay: Cotton aphid (Aphis gossypii) test, infested cotton cotyledons dipped in test solution; format: in vivo; conditions: 120 h, determined after 5 days, read-out: mortality of cotton aphid (Aphis gossypii, mixed life stages) in comparison with untreated controls
Experimental: (§2) The active compounds were formulated in a mixture of 50 vol.-% acetone:50 vol.-% water. A nonionic surfactant (Kinetic®) was included in the solution at a volume of 0.01% v/v.
as §1
Cotton plants at the cotyledon stage were infested prior to treatment by placing a heavily infested leaf from the main aphid colony on top of each cotyledon. The aphids were allowed to transfer overnight and the host leaf was removed. The infested cotyledons were then dipped and agitated in the test solution for 3 seconds and allowed to dry in a fume hood. Test plants were maintained under fluorescent lighting in a 24-hr photoperiod at 25° C. and 20-40% relative humidity. Aphid mortality on the treated plants, relative to mortality on untreated check plants, was determined after 5 days.

[3] = system: Green Peach Aphid (Myzus persicae); assay: Green peach aphid (Myzus persicae) test, infested bell pepper leaves dipped in test solution; format: in vivo; conditions: 120 h, determined after 5 days, read-out: mortality of green peach aphid in comparison with untreated controls
Experimental: as §2, §1
Bell pepper plants at the first true-leaf stage were infested prior to treatment by placing heavily infested leaves from the main aphid colony on top of the treatment plants. The aphids were allowed to transfer overnight to accomplish an infestation of 30-40 aphids per plant and the host leaves were removed. The infested leaves of the test plants were then dipped and agitated in the test solution for 3 seconds and allowed to dry in a fume hood. Test plants were maintained under fluorescent lighting in a 24-hr photoperiod at 25° C. and 20-40% relative humidity. Mortality on the treated plants, relative to mortality on untreated check plants, was determined after 5 days.

[4] = system: Vetch Aphid (Megoura viciae); assay: Vetch aphid (Megoura viciae) test, sprayed bean leaf disks in microtiterplates; format: in vivo; conditions: foliar, 144 h, bean leaf disks sprayed with 2.5 μl, 6 days, read-out: mortality compared to untreated controls
Experimental: The active compounds were formulated in 1:3 DMSO:water. Bean leaf disks were placed into microtiterplates filled with 0.8% agar-agar and 2.5 ppm OPUS™. The leaf disks were sprayed with 2.5 μl of the test solution and 5 to 8 adult aphids were placed into the microtiterplates which were then closed and kept at 22-24° C. and 35-45% under fluorescent light for 6 days. Mortality was assessed on the basis of vital, reproduced aphids. Tests were replicated 2 times.

[5] = system: Silverleaf Whitefly (bemisia argentifolii); assay: Silverleaf whitefly (bemisia argentifolii) test, cotton cotyledons dipped, whitefly adults introduced; format: in vivo; conditions: 72 h, whitefly adults on dipped cotton cotyledons, assessed 3 days after treatment, read-out: mortality compared to untreated controls
Experimental: as §1
The active compounds were formulated in 50:50 acetone:water and 100 ppm Kinetica™ surfactant.
Selected cotton plants were grown to the cotyledon state (one plant per pot). The cotyledons were dipped into the test solution to provide complete coverage of the foliage and placed in a well-vented area to dry. Each pot with treated seedling was placed in a plastic cup and 10 to 12 whitefly adults (approximately 3-5 day old) were introduced. The insects were colleted using an aspirator and an 0.6 cm, non-toxic TygonÒ tubing (R-3603) connected to a barrier pipette tip. The tip, containing the collected insects, was then gently inserted into the soil containing the treated plant, allowing insects to crawl out of the tip to reach the foliage for feeding. The cups were covered with a reusable screened lid (150 micron mesh polyester screen PeCap from Tetko Inc). Test plants were maintained in the holding room at about 25° C. and 20-40% relative humidity for 3 days avoiding direct exposure to the fluorescent light (24 hour photoperiod) to prevent trapping of heat inside the cup. Mortality was assessed 3 days after treatment of the plants.

SMILES: CC1Cc2c(F)cccc2C1NC(=S)NCCO (stereo not drawn) [Compound example 8]
mortality at 300 ppm [1]: ≥ 75% | mortality at 300 ppm [2]: ≥ 75% | mortality at 300 ppm [3]: ≥ 75% | mortality at 2500 ppm [4]: ≥ 75%

melting point: 67 to 69 °C
SMILES: OCCNC(=S)NC1(c2ccccc2)CCc2ccccc21 (stereo not drawn) [Compound example 4]

SMILES: OCCNC(=S)NC1CSc2c(F)cccc21 (stereo not drawn) [Compound example 2, 1-(7-Fluoro-2,3-dihydro-benzo[b]thiophen-3-yl)-3-(2-hydroxy-ethyl)-thiourea]
mortality at 300 ppm [1]: ≥ 75% | mortality at 300 ppm [2]: ≥ 75% | mortality at 300 ppm [3]: ≥ 75% | mortality at 2500 ppm [4]: ≥ 75%

SMILES: CC(=O)OCCNC(=S)NC1c2cccc(F)c2CC1(C)C (stereo not drawn) [Compound example 5]
mortality at 300 ppm [1]: ≥ 75% | mortality at 300 ppm [5]: ≥ 75% | mortality at 300 ppm [2]: ≥ 75% | mortality at 300 ppm [3]: ≥ 75% | mortality at 2500 ppm [4]: ≥ 75%

SMILES: CC1(C)Cc2c(F)cccc2C1NC(=S)NCCO (stereo not drawn) [Compound example 6]
mortality at 300 ppm [1]: ≥ 75% | mortality at 300 ppm [2]: ≥ 75% | mortality at 300 ppm [3]: ≥ 75% | mortality at 2500 ppm [4]: ≥ 75%

SMILES: OCCNC(=S)NC1COc2ccc(F)cc21 (stereo not drawn) [Compound example 1, 1-(5-Fluoro-2,3-dihydro-benzofuran-3-yl)-3-(2-hydroxy-ethyl)-thiourea]
mortality at 300 ppm [1]: ≥ 75% | mortality at 300 ppm [2]: ≥ 75% | mortality at 300 ppm [3]: ≥ 75% | mortality at 2500 ppm [4]: ≥ 75%

SMILES: CC(=O)OCCNC(=S)NC1CC(C)c2c(F)cccc21 (stereo not drawn) [Compound example 7]
mortality at 300 ppm [5]: ≥ 75% | mortality at 300 ppm [2]: ≥ 75% | mortality at 300 ppm [3]: ≥ 75% | mortality at 2500 ppm [4]: ≥ 75%

SMILES: CC(=O)OCCNC(=S)NC1CSc2c(F)cccc21 (stereo not drawn) [Compound example 3, Acetic acid 2-[3-(7-fluoro-2,3-dihydro-benzo[b]thiophen-3-yl)thioureido]-ethyl ester]
mortality at 300 ppm [1]: ≥ 75% | mortality at 300 ppm [5]: ≥ 75% | mortality at 300 ppm [3]: ≥ 75% | mortality at 2500 ppm [4]: ≥ 75%
